System: Acinetobacter baumannii isolates
Experiment: Antimicrobial susceptibility test, disc diffusion method (CLSI M100-S24)
Format: cell-based
Design: key to Inhibition zone: “NZ” indicated that no zone of inhibition was observed
Conditions: disc diffusion
Experimental: A total of 33 non-duplicate, non-consecutive clinical isolates of Multi-Drug Resistant (MDR) Acinetobacter baumannii were collected from burn wards (“AB1-AB33”). Acinetobacter baumannii ATCC BAA 747 and Pseudomonas aeruginosa ATCC 27853 were used as control strains. The isolates were stored at −80° C. in trypticase soy broth containing 20% glycerol.
Antimicrobial susceptibility tests of the collection of isolates were conducted using the disc diffusion method. The experiment was performed according to the recommendations and guidelines of Clinical Laboratory Standard Institutes (CLSI M100-S24; 2014). Clinical and Laboratory Standards Institute (CLSI), “Performance standards for antimicrobial susceptibility testing; twenty-fourth informational supplement,” Document M100-S24, Clinical and Laboratory Standards Institute (CLSI), Wayne, Pa., USA, 2014.
A panel of commercial antibiotic discs (Amoxicillin (AMX), Amoxicillin/clavulanic acid (AMX/CLA), Piperacillin (PIP), Piperacillin/Tazobactam (PIP/TAZ), Ceftazidime (CAZ), Cefotaxime (CTX), Cefepime (FEP), Cefoxitin (FOX), Aztreonam (ATM), Imipenem (IP), Gentamicin (GEN), Amikacin (AK), Neomycin (NEO), Levofloxacin (LEV), Chloramphenicol (CHL), Tetracycline (TET), sulfamethoxazole/trimethoprim (SUL/TRI) was used for susceptibility testing. All commercial antibiotic discs were purchased from BBL (Becton Dickinson, USA).
Forty grams of Mueller-Hinton Agar (MHA) were suspended in 1 Liter distilled water and then boiled to dissolve the powder completely. The medium was sterilized by autoclaving at 121° C. for 15 min. After autoclaving, the medium was cooled to 45° C. and 25 mL of molten agar media was poured into sterile Petri dishes (90 mm diameter) to give a depth of about 4 mm. The surface of the agar was dried to remove excess moisture before use. The plates were stored at 4-8° C. in sealed plastic bags if not used immediately.
The inoculum suspension was prepared by selecting three to five morphologically similar colonies from overnight growth (16-24 h of incubation) on blood agar medium. […] The suspension density was measured using a UV spectrophotometer calibrated with a 0.5 McFarland standard. The density of the suspension was adjusted to McFarland 0.5 by addition of saline or more microorganisms. The adjusted inoculum suspension was used within 60 min of preparation.
A sterile cotton swab was dipped into the bacterial suspension and the excess fluid was removed by turning the swab against the inside wall of the tube to avoid over-inoculation of plates. The inoculum was spread evenly over the entire surface of the agar plate by swabbing in three directions.
The predetermined panel of antimicrobial disks was applied firmly on the inoculated Mueller-Hinton agar surface within 15 min of inoculation of the plates by a disc dispenser device. A maximum of six disks were accommodated on a 90-mm circular plate.
Within 15 min of application of antimicrobial disks, the plates were inverted and incubated aerobically at 35-37° C. for 18-20 h.
After incubation, inhibition zones were measured at the point where no obvious growth is detected by the unaided eye when the plate is held about 30 cm from the eye. Inhibition zone diameters were measured to the nearest millimeter with a ruler. The plates were read from the back of the plate with reflected light against a dark background. Zone diameters were interpreted and categorized as susceptible “S”, intermediate “I”, or resistant “R” according to the CLSI clinical breakpoint tables (see Table 1 and Table 2).

| SMILES | Inhibition zone (isolate AB1) | Inhibition zone (isolate AB2) [mm] | Inhibition zone (isolate AB3) [mm] | Inhibition zone (isolate AB4) [mm] | Inhibition zone (isolate AB5) | Inhibition zone (isolate AB6) | Inhibition zone (isolate AB7) | Inhibition zone (isolate AB8) | Inhibition zone (isolate AB9) [mm] | Inhibition zone (isolate AB10) | Inhibition zone (isolate AB11) | Inhibition zone (isolate AB12) | Inhibition zone (isolate AB13) | Inhibition zone (isolate AB14) | Inhibition zone (isolate AB15) | Inhibition zone (isolate AB16) [mm] | Inhibition zone (isolate AB17) [mm] | Inhibition zone (isolate AB18) [mm] | Inhibition zone (isolate AB19) | Inhibition zone (isolate AB20) | further results |
| --- | --- | --- | --- | --- | --- | --- | --- | --- | --- | --- | --- | --- | --- | --- | --- | --- | --- | --- | --- | --- | --- |
| O=C(N[C@H](CO)[C@H](O)c1ccc([N+](=O)[O-])cc1)C(Cl)Cl [CHL, Chloramphenicol] | NZ | 24 | 26 | 23 | 8 mm | NZ | NZ | 7 mm | 24 | NZ | NZ | NZ | NZ | NZ | 10 mm | 30 | 13 | 8 | 8 mm | NZ | Inhibition zone (isolate AB21): NZ; Inhibition zone (isolate AB22): NZ; Inhibition zone (isolate AB23): NZ; Inhibition zone (isolate AB24): 8 mm; Inhibition zone (isolate AB25): NZ; Inhibition zone (isolate AB26): 25 mm; Inhibition zone (isolate AB27): NZ; Inhibition zone (isolate AB28): 14 mm; Inhibition zone (isolate AB29): 12 mm; Inhibition zone (isolate AB30): 11 mm; Inhibition zone (isolate AB31): 8 mm; Inhibition zone (isolate AB32): 9 mm; Inhibition zone (isolate AB33): 18 mm |
| CCN1CCN(C(=O)N[C@@H](C(=O)N[C@@H]2C(=O)N3[C@@H]2SC(C)(C)[C@@H]3C(=O)O)c2ccccc2)C(=O)C1=O [PIP, Piperacillin] | 21 mm | 20 | 32 | 21 | NZ | 18 mm | NZ | NZ | 24 | NZ | NZ | NZ | NZ | NZ | NZ | 16 | 15 | 8 | NZ | NZ | Inhibition zone (isolate AB21): NZ; Inhibition zone (isolate AB22): NZ; Inhibition zone (isolate AB23): NZ; Inhibition zone (isolate AB24): NZ; Inhibition zone (isolate AB25): 10 mm; Inhibition zone (isolate AB26): NZ; Inhibition zone (isolate AB27): 8 mm; Inhibition zone (isolate AB28): 7 mm; Inhibition zone (isolate AB29): NZ; Inhibition zone (isolate AB30): 8 mm; Inhibition zone (isolate AB31): 8 mm; Inhibition zone (isolate AB32): 8 mm; Inhibition zone (isolate AB33): 22 mm |

— US11617726B2, “Method for preventing, treating, or ameliorating a microbial infection” (priority 2018, dated 2023)
